Data as given in ChEMBL document CHEMBL5291721, “A preclinical secondary pharmacology resource illuminates target-adverse drug reaction associations of marketed drugs” (Nat Commun, 2023).

Legend:
[1] = molecular target: Vasopressin V1a receptor (Homo sapiens, UniProt P37288)
[2] = molecular target: T1, Cholecystokinin receptor type A (Homo sapiens, UniProt P32238)
T1 sequence (P32238 whole entry): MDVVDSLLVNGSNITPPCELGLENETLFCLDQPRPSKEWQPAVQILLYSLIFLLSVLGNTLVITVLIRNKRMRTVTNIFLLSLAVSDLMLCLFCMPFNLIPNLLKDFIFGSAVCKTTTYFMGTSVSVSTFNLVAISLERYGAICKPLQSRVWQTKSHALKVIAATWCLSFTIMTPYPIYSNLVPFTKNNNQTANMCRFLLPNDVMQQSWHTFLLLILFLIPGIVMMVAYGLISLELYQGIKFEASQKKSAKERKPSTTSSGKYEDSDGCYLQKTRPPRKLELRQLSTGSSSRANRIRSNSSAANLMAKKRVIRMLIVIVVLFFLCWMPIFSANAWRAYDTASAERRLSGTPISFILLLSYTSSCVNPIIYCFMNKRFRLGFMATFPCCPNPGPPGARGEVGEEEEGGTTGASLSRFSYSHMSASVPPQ

[3] = molecular target: Gamma-aminobutyric acid receptor subunit alpha-1 (Rattus norvegicus, UniProt P62813)
Gamma-aminobutyric acid receptor subunit alpha-1, sequence (P62813 whole entry): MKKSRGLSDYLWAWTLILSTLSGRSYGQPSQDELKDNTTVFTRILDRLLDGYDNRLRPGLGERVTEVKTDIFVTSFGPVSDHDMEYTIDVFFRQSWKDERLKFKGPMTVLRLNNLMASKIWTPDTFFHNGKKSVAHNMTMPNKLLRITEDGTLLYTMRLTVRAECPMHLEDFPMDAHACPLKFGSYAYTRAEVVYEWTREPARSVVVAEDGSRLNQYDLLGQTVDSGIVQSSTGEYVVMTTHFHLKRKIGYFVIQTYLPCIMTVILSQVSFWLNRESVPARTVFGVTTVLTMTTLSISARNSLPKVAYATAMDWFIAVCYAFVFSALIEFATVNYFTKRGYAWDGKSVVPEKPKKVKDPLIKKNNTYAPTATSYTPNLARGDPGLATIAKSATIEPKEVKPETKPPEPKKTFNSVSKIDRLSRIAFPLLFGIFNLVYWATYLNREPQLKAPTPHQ

[4] = molecular target: Growth hormone secretagogue receptor type 1 (Homo sapiens, UniProt Q92847)
Growth hormone secretagogue receptor type 1, sequence (Q92847 whole entry): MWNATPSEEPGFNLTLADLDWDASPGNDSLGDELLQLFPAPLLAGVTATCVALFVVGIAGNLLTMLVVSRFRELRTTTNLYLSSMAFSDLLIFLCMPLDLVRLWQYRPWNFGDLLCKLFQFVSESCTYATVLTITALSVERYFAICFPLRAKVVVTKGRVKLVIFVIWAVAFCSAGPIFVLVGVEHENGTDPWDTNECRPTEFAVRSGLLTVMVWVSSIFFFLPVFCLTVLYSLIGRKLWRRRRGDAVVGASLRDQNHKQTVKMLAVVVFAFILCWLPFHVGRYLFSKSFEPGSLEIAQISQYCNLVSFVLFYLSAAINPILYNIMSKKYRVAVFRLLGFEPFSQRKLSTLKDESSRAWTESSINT

[5] = molecular target: 5-hydroxytryptamine receptor 2B (Homo sapiens, UniProt P41595); format: functional, cell-based
5-hydroxytryptamine receptor 2B, sequence (P41595 whole entry): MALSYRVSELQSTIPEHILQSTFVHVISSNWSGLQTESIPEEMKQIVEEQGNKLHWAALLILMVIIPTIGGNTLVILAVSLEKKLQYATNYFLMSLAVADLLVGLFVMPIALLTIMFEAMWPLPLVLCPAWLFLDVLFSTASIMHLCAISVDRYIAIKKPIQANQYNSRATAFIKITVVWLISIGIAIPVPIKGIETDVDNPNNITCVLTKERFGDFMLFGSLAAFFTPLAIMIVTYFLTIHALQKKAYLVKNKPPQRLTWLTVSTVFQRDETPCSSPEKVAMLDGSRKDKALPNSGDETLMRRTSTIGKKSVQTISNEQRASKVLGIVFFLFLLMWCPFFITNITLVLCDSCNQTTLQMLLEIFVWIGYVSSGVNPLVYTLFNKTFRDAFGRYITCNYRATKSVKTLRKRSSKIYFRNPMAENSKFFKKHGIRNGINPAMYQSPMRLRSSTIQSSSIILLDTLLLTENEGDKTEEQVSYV

[6] = molecular target: T2, 5-hydroxytryptamine receptor 2C (Homo sapiens, UniProt P28335)
T2 sequence (P28335 whole entry): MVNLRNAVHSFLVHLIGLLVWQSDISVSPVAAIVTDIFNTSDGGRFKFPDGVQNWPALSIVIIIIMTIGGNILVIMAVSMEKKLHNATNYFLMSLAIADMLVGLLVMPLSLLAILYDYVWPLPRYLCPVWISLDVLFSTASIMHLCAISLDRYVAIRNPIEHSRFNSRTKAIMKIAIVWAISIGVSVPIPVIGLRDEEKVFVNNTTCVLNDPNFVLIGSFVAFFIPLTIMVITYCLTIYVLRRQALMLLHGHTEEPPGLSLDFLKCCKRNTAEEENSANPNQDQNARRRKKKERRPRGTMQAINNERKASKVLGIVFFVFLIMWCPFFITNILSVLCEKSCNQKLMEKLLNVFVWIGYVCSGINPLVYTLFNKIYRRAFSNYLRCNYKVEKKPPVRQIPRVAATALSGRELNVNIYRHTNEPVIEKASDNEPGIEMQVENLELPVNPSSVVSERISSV

[7] = molecular target: T3, 5-hydroxytryptamine receptor 3A (Homo sapiens, UniProt P46098); format: functional
T3 sequence (P46098 whole entry): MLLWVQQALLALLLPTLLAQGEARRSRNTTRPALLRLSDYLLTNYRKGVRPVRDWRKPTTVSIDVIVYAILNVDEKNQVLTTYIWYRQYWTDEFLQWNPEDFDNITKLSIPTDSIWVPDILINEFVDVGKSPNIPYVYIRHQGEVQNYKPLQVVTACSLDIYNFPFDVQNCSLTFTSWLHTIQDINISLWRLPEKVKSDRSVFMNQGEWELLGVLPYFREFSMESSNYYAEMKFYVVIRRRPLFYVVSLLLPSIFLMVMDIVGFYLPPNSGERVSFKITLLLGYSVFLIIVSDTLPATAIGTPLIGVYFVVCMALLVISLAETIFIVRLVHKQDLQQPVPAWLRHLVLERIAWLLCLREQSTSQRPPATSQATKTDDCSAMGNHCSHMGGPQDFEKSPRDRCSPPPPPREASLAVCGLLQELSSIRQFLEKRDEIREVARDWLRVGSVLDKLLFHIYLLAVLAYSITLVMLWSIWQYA

[8] = molecular target: T4, Glucocorticoid receptor (Homo sapiens, UniProt P04150)
T4 sequence (P04150 whole entry): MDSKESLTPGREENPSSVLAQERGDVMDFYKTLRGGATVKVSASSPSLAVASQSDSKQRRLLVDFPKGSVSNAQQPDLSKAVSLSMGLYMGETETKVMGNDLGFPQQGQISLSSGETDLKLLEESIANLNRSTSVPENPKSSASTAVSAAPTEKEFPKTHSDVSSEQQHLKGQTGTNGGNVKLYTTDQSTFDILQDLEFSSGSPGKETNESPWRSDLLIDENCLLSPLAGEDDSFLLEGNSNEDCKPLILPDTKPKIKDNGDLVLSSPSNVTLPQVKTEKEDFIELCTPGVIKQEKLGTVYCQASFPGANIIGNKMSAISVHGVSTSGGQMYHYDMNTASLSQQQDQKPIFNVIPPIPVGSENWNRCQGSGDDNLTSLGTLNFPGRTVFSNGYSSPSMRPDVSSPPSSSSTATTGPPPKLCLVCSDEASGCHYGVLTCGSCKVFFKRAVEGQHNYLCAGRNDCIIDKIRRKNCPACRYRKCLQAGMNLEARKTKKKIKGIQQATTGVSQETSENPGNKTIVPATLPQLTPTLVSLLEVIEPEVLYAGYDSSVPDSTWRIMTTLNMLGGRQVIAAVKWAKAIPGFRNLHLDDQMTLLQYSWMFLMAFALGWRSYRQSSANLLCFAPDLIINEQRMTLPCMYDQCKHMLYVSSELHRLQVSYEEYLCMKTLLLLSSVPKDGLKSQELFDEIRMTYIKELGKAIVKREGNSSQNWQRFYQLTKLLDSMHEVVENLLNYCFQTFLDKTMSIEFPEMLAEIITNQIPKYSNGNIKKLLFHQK

[9] = molecular target: T5, Thromboxane A2 receptor (Homo sapiens, UniProt P21731)
T5 sequence (P21731 whole entry): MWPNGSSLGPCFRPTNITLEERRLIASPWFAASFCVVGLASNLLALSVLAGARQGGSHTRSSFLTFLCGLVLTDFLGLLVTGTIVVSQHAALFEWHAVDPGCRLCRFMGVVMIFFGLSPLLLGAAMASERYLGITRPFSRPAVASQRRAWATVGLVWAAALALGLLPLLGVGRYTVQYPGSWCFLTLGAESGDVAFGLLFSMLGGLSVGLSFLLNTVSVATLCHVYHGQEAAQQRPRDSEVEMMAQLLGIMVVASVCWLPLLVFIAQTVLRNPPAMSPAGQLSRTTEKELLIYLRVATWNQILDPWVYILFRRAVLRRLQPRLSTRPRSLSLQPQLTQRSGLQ

[10] = molecular target: Sodium-dependent dopamine transporter (Homo sapiens, UniProt Q01959)
Sodium-dependent dopamine transporter, sequence (Q01959 whole entry): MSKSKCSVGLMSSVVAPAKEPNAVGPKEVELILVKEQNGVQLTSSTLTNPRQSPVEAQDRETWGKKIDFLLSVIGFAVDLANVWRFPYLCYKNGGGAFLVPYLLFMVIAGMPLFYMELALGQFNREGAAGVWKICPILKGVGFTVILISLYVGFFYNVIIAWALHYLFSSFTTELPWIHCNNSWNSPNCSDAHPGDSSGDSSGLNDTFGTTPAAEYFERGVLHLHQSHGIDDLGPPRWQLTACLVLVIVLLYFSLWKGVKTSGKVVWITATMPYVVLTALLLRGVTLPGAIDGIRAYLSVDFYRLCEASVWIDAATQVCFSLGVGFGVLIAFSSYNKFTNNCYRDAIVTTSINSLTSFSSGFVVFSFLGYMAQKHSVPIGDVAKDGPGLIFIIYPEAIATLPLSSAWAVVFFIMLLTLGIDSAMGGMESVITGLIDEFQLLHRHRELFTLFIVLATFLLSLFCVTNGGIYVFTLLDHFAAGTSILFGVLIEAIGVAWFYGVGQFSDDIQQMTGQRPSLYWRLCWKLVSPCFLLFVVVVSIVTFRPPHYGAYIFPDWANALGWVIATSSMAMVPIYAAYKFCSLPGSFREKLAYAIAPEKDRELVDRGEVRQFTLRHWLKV

[11] = molecular target: Sodium-dependent noradrenaline transporter (Homo sapiens, UniProt P23975)
Sodium-dependent noradrenaline transporter, sequence (P23975 whole entry): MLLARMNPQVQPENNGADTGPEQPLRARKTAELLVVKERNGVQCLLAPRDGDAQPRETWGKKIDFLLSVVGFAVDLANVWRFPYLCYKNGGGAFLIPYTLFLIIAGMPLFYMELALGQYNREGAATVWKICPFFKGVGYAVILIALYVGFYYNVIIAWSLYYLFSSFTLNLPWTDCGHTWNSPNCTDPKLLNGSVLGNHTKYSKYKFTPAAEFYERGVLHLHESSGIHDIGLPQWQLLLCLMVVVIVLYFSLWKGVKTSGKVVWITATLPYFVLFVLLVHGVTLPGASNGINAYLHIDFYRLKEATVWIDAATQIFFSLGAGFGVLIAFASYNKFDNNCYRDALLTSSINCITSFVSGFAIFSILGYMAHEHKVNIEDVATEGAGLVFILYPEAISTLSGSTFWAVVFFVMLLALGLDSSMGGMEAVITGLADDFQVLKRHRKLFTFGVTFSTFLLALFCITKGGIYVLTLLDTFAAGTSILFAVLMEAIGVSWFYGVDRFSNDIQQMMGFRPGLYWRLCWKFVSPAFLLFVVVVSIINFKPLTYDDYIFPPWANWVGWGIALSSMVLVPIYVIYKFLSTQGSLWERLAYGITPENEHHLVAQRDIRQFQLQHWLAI

[12] = molecular target: cGMP-inhibited 3',5'-cyclic phosphodiesterase 3A (Homo sapiens, UniProt Q14432); format: functional
cGMP-inhibited 3',5'-cyclic phosphodiesterase 3A, sequence (Q14432 whole entry): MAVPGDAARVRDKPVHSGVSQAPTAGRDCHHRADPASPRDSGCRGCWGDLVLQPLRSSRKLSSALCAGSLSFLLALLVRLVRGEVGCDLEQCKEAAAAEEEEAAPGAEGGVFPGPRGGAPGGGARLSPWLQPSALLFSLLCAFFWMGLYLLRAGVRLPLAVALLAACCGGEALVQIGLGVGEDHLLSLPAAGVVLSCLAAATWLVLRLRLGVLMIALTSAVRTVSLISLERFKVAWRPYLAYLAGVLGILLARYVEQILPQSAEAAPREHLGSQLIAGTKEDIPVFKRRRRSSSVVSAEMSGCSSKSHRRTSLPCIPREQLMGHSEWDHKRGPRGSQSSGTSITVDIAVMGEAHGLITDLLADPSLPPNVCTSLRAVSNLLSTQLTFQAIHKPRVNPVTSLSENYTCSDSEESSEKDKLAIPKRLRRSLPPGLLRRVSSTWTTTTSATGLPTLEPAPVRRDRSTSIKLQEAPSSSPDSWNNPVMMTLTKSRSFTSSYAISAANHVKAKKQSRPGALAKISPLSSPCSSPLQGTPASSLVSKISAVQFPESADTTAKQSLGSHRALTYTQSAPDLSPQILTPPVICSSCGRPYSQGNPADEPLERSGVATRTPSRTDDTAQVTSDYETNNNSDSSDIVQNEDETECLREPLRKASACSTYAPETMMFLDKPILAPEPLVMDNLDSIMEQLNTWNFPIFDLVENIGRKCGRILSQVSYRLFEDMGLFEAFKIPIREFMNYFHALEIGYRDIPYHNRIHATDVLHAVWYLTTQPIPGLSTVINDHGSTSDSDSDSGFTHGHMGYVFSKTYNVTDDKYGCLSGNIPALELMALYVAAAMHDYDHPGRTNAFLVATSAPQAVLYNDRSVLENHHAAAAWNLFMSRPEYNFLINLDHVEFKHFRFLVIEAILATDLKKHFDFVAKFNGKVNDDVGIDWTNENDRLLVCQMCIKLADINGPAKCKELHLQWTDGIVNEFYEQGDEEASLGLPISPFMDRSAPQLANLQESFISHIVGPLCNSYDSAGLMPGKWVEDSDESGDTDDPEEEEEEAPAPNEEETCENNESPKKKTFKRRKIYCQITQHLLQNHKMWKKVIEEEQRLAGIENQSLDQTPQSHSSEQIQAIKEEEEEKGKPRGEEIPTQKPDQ

[13] = molecular target: Histamine H3 receptor (Homo sapiens, UniProt Q9Y5N1)
Histamine H3 receptor, sequence (Q9Y5N1 whole entry): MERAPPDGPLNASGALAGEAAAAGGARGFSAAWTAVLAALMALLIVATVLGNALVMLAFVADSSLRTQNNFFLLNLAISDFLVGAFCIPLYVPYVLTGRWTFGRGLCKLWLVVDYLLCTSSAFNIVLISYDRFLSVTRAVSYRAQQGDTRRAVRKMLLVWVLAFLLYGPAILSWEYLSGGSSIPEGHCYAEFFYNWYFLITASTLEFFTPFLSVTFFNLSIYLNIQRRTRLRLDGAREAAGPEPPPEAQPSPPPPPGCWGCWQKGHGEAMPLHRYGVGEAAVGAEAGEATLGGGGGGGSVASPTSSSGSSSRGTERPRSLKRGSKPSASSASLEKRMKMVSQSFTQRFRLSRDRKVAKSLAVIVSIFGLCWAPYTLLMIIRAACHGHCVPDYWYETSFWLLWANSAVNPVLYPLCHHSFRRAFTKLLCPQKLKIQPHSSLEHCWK
Note: assay procedure not described here.

Vasopressin V1a receptor, sequence (P37288 whole entry): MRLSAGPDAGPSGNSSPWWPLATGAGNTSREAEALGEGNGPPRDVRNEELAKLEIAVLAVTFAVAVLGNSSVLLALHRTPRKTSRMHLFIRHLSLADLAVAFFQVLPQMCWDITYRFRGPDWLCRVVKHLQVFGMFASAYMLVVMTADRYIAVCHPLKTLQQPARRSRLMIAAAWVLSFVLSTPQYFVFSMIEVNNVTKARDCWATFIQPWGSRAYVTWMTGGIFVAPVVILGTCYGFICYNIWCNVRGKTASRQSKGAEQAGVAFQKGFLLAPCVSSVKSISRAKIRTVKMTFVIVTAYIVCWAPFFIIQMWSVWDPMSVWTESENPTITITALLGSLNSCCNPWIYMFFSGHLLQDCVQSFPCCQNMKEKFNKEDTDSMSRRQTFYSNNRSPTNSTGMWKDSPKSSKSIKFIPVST

| Compound | AC50 [1] [µM] | AC50 [2] [µM] | AC50 [3] [µM] | AC50 [4] [µM] | AC50 [5] [µM] | AC50 [6] [µM] | AC50 [7] [µM] | AC50 [8] [µM] | AC50 [9] [µM] | AC50 [10] [µM] | AC50 [11] [µM] | AC50 [12] [µM] | AC50 [13] [µM] |
| --- | --- | --- | --- | --- | --- | --- | --- | --- | --- | --- | --- | --- | --- |
| CC(=O)c1ccc(S(=O)(=O)NC(=O)NC2CCCCC2)cc1 [ACETOHEXAMIDE] | > 10 | > 10 | > 10 | > 10 | > 30 | > 30 | > 30 | > 10 | > 10 | > 10 | > 10 | > 30 |  |
| NS(=O)(=O)c1cc2c(cc1Cl)N=C(CSCc1ccccc1)NS2(=O)=O [BENZTHIAZIDE] | > 10 | > 10 | > 10 | > 10 | > 10 | > 30 | > 10 | > 30 | > 10 | > 10 | > 10 | > 30 |  |
| CC(CN(C)C)C(C)(O)Cc1ccc(Cl)cc1 (stereo unspecified) [CLOBUTINOL] |  | > 30 | > 10 | > 30 | > 10 | > 30 | > 30 | > 30 | > 30 | > 30 | > 30 | > 30 | > 10 |
| CCN1CC(CCN2CCOCC2)C(c2ccccc2)(c2ccccc2)C1=O (stereo unspecified) [DOXAPRAM] |  | > 30 | > 30 | > 30 | > 30 | 0.071 | > 30 | > 30 | > 30 | > 30 | > 30 | > 30 | > 30 |
| CC(=O)[C@H]1CC[C@H]2[C@@H]3C[C@H](C)C4=CC(=O)CC[C@]4(C)[C@H]3[C@@H](O)C[C@]12C [MEDRYSONE] | > 10 | > 10 | > 10 | > 10 | > 10 | > 30 | > 30 | 0.005 | > 10 | > 10 | > 10 | > 30 |  |
| CCCC(C)(COC(N)=O)COC(N)=O [MEPROBAMATE] | > 10 | > 10 | > 10 | > 10 | > 10 | > 30 | > 30 | > 10 | > 10 | > 10 | > 10 | > 30 |  |
| COc1ccc2cc(CCC(C)=O)ccc2c1 [NABUMETONE] |  | > 10 | > 10 | > 10 | > 10 | > 30 | > 30 | > 10 | > 10 | 7.8 | 20 | > 30 |  |
| O=C(c1cc(Cc2n[nH]c(=O)c3ccccc23)ccc1F)N1CCN(C(=O)C2CC2)CC1 [OLAPARIB] | > 30 | > 30 | > 10 | > 30 | > 10 | > 30 | > 30 | > 30 | > 30 | > 30 | > 30 | 24 |  |
| C[C@]12C/C(=C/O)C(=O)C[C@@H]1CC[C@@H]1[C@@H]2CC[C@@]2(C)[C@H]1CC[C@]2(C)O [OXYMETHOLONE] |  | > 30 | > 30 | > 30 | > 30 | > 30 | > 30 | 21 | > 30 | > 30 | > 30 | > 30 | > 30 |
| NC(=O)NC(=O)Cc1ccccc1 [PHENACEMIDE] |  | > 10 | > 10 | > 10 | > 10 | > 30 | > 30 | > 10 | > 10 | > 10 | > 10 | > 30 |  |
| CCCN(CCC)S(=O)(=O)c1ccc(C(=O)O)cc1 [PROBENECID] |  | > 10 | > 10 | > 10 | > 10 | > 30 | > 30 | > 10 | > 10 | > 10 | > 10 | > 30 |  |
| CCc1nc(N)nc(N)c1-c1ccc(Cl)cc1 [PYRIMETHAMINE] | > 10 | > 10 | > 10 | > 10 | 11.3 | > 30 | > 30 | > 10 | > 10 | 2.2 | > 30 | > 30 |  |
| Cc1cc(C)nc(NS(=O)(=O)c2ccc(N)cc2)n1 [SULFAMETHAZINE] |  | > 10 | > 10 | > 10 | > 10 | > 30 | > 30 | > 10 | > 10 | > 10 | > 10 | > 30 |  |
| CCOC(=O)c1ccc(C#Cc2ccc3c(c2)C(C)(C)CCS3)nc1 [TAZAROTENE] |  | > 30 | > 10 | > 30 | > 10 | > 30 | > 30 | > 30 | > 30 | > 30 | > 30 | > 30 | > 10 |
| COc1cc(C(=O)NC2CCCNC2)cc(OC)c1OC (stereo unspecified) [TROXIPIDE] |  | > 30 | > 30 | > 30 | > 30 | > 30 | > 30 | > 30 | > 30 | > 30 | > 30 | > 30 | > 30 |
